Data taken from US20240197709A1, “POTENTIATING THE TUMOR-SELECTIVE EFFECTS OF NQO1-BIOACTIVATABLE AGENT BY USE OF CMET INHIBITOR” (The Trustees of Indiana University, priority 2022, published 2024).

What was measured:
[1] = system: IMR90 lung fibroblast cell line; assay: long-term cell survival assay, IMR90; assay type: cell-based, human; conditions: IMR90, no NQO1, high CAT; criz ± sub-lethal β-lap (3 μM)
Protocol: FIG. 1D. […] LC50 values were calculated from long-term cell survival graphs using GraphPad PRISM; ND denotes Not Determined even at the highest concentration presented. All error bars represent the mean±SEM. **** p<0.0001, *** p<0.001, ** p<0.01, *p<0.05.

[2] = in vivo; cited from earlier work
[3] = system: Capan2-mCherry microtumor; assay: 3D spheroid co-culture, tumor cells; assay type: cell-based; conditions: 3D co-culture with NIH3T3-GFP; crizotinib 2 μM, β-lap 2 μM or 4 μM
Protocol: FIG. 5D. Top Inset: Representative brightfield, green (NIH3T3-GFP), red (Capan2-mCherry), and merged images of 3D spheroid co-culture of Capan2-mCherry (cancer cells) and NIH3T3-GFP (normal cells). 3D co-cultures were exposed to specified treatment conditions and imaged at indicated times to monitor drug response. Scale bar=250 μm. Untreated NIH3T3-GFP 3D spheroid culture by itself (imaged at indicated times) was added for reference.
FIG. 5E. Bar graph of Capan2-mCherry 3D spheroid microtumor growth at specified treatment conditions over time. Asterisk (*) indicates synergistic response in the combination treatment compared to the corresponding individual treatments alone.
Next, we investigated the tumor-selectivity and efficacy of our combination treatment strategy using 3D co-culture spheroids of Capan2 PDAC (permanently labelled with mCherry) and NIH3T3 mouse embryonic fibroblast cells (permanently labelled with GFP) to mimic physiological cell-cell and cell-environment interactions during treatment. […] These are consistent with patient data comparing associated normal tissues versus tumors in pancreas (FIGS. 1-1B, 1-1G) and lungs (FIGS. 1A, 1-1B, 1-1H). Using confocal fluorescent microscopy, we noted that NIH3T3-GFP fibroblast cells were surrounding the Capan2-mCherry PDAC cells in the 3D spheroid co-culture (FIG. 5D).

[4] = system: cellular hydrogen peroxide (H2O2) levels in A549 cells; assay: ROS-Glo H2O2 Assay; assay type: cell-based; conditions: A549, DIC 50 μM
Protocol: FIG. 2-1A. […] Growth media was then replaced with fresh media containing β-lap (3 μM) alone, criz alone (1 μM) or combination±DIC (50 μM) and collected at 15 and 120 min to measure H2O2 production using the ROS-Glo™ H2O2 Assay from Promega (Madison, WI). The assay was performed in three biological replicates.
Next, we sought to investigate the mechanistic role of cMET in promoting resistance to ROS-induced DNA lesions caused by the futile redox cycling of β-lap with NQO1. […] In response to H2O2 stimulation, cMET can translocate into the nucleus where it interacts with PARP1 for activation to enhance the repair of ROS-induced DNA damage. […] Next we performed PARP1 immunoprecipitation studies to determine whether it associates with activated cMET in the nucleus following treatment with β-lap at increasing doses.

Capan2 shMET = assay: long-term survival (DNA assay), Capan2 shSCR versus shMET; assay type: cell-based; conditions: DIC 50 μM
Excerpt: FIG. 1-1R. Graph showing relative long-term survival in isogenic Capan2 shSCR versus shMET cell lines using the DNA assay.
Dicoumarol (DIC) is a well-established NQO1 inhibitor (Asher, et al., Biochemistry 2006, 45(20), 6372-8; Motea, et al., Clin Cancer Res 2019, 25(8), 2601-2609; Huang, et al., Cancer Cell 2016, 30(6), 940-952).

[5] = system: A549 NSCLC cell migration and invasion; conditions: A549, crizotinib+β-lap+DIC
Protocol: FIG. 4A. Representative images of A549 NSCLC cell migration at indicated treatment conditions at 16 h post-treatment using a Boyden chamber migration assay: 2 h pre-treatment with criz followed by additional 2 h with criz±β-lap.
FIG. 4B. Bar graph showing quantification of cell migration expressed as a percent of control (vehicle).
FIG. 4C. Representative images of A549 NSCLC cell invasion at indicated treatment conditions at 16 h post-treatment using a matrigel-coated Boyden chamber invasion assay: 2 h pre-treatment with criz followed by additional 2 h with criz±β-lap.
FIG. 4D. Bar graph showing quantification of cell invasion expressed as a percent of control (vehicle).

Compound | long-term cell survival (sensitivity) [1] | MTD [2] | Capan2-mCherry microtumor growth [3] | H2O2 formation, DIC added to β-lap+criz [4] | effect of added DIC on β-lap sensitivity (Capan2 shMET) | migration and invasion, DIC added to the combination treatment [5]
C[C@@H](Oc1cc(-c2cnn(C3CCNCC3)c2)cnc1N)c1c(Cl)ccc(F)c1Cl [crizotinib] | remained resistant | 250 mg twice daily | very little effect on tumor growth |  |  | 
O=c1oc2ccccc2c(O)c1Cc1c(O)c2ccccc2oc1=O [DIC, Dicoumarol] |  |  |  | prevented H2O2 formation | rescued | restored the ability of A549 to migrate and invade
